Measurements reported in ChEMBL document CHEMBL1140063, “Synthesis and biological evaluation of 2-amino-3-(4-chlorobenzoyl)-4-[N-(substituted) piperazin-1-yl]thiophenes as potent allosteric enhancers of the A1 adenosine receptor” (J Med Chem, 2008).

Legend:
[1] = molecular target: T1, Adenosine receptor A1 (Homo sapiens) (UniProt P30542); test: Activity at human recombinant adenosine A1 receptor expressed in CHO cells assessed as cAMP level at 0.01 uM; assay type: functional, cell-based
T1 sequence (whole entry): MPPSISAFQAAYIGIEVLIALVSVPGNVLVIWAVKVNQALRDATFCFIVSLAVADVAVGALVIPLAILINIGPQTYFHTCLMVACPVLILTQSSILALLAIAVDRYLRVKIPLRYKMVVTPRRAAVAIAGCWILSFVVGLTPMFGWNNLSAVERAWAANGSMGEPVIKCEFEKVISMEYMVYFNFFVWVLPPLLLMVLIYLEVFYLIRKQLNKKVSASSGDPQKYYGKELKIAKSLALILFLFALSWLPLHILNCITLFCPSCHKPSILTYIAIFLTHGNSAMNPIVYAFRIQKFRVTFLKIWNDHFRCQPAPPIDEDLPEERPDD

[2] = molecular target: T1, Adenosine receptor A1 (Homo sapiens); test: Activity at human recombinant adenosine A1 receptor expressed in CHO cells assessed as of cAMP level at 0.1 uM; assay type: functional, cell-based
[3] = molecular target: T1, Adenosine receptor A1 (Homo sapiens); test: Activity at human recombinant adenosine A1 receptor expressed in CHO cells assessed as cAMP level at 1 uM; assay type: functional, cell-based
[4] = molecular target: T1, Adenosine receptor A1 (Homo sapiens); test: Activity at human recombinant adenosine A1 receptor expressed in CHO cells assessed as cAMP level at 10 uM; assay type: functional, cell-based
[5] = molecular target: T1, Adenosine receptor A1 (Homo sapiens); test: Displacement of [3H]DPCPX from human adenosine A1 receptor expressed in CHO cells at 10 uM; assay type: cell-based
[6] = molecular target: Adenosine receptor A2a (Homo sapiens) (UniProt P29274); test: Displacement of [3H]ZM241385 from human adenosine A2A receptor expressed in CHO cells at 10 uM; assay type: cell-based
Adenosine receptor A2a (Homo sapiens), sequence (P29274 whole entry): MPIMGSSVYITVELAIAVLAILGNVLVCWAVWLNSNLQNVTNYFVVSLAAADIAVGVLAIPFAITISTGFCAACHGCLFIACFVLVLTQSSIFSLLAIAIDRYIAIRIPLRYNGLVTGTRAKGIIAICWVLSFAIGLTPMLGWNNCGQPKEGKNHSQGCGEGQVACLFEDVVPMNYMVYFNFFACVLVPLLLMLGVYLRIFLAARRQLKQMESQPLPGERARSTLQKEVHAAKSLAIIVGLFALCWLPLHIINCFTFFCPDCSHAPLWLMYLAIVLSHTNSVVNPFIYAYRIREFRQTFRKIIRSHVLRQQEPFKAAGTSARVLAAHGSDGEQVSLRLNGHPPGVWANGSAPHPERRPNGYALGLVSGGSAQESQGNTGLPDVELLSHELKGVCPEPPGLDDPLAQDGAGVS

[7] = molecular target: T2, Adenosine receptor A3 (Homo sapiens) (UniProt P0DMS8); test: Displacement of [3H]MRE3008F20 from human adenosine A3 receptor expressed in CHO cells at 10 uM; assay type: cell-based
T2 sequence (whole entry): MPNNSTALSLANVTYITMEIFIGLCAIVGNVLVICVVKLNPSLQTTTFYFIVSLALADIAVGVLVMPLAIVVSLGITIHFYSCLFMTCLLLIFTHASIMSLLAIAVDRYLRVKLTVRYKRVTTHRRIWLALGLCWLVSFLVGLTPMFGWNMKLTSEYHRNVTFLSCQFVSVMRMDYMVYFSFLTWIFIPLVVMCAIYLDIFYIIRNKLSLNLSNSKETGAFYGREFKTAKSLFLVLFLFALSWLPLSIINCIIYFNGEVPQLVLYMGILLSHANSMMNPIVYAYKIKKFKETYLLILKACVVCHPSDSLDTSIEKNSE

[8] = molecular target: T3, Adenosine receptor A1 (Homo sapiens, UniProt P30542); test: Displacement of [3H]CCPA from human adenosine A1 receptor expressed in CHO cells; assay type: cell-based
T3 sequence (P30542 whole entry): T1 sequence (whole entry)

[9] = molecular target: T1, Adenosine receptor A1 (Homo sapiens); test: Displacement of [3H]CCPA from human adenosine A1 receptor expressed in CHO cells assessed for per milligram of protein; assay type: cell-based
[10] = molecular target: T1, Adenosine receptor A1 (Homo sapiens); test: Displacement of [3H]CCPA from human adenosine A1 receptor expressed in CHO cells relative to untreated control; assay type: cell-based
[11] = molecular target: T3, Adenosine receptor A1; test: Displacement of [3H]DPCPX from human adenosine A1 receptor expressed in CHO cells; assay type: cell-based
[12] = molecular target: T1, Adenosine receptor A1 (Homo sapiens); test: Displacement of [3H]DPCPX from human adenosine A1 receptor expressed in CHO cells assessed for per milligram of protein; assay type: cell-based
[13] = molecular target: T1, Adenosine receptor A1 (Homo sapiens); test: Displacement of [3H]DPCPX from human adenosine A1 receptor expressed in CHO cells relative to untreated control; assay type: cell-based
[14] = molecular target: T4, Adenosine receptor A1 (Rattus norvegicus, UniProt P25099); test: Displacement of [3H]DPCPX from adenosine A1 receptor in rat membranes; assay type: cell membranes
T4 sequence (P25099 whole entry): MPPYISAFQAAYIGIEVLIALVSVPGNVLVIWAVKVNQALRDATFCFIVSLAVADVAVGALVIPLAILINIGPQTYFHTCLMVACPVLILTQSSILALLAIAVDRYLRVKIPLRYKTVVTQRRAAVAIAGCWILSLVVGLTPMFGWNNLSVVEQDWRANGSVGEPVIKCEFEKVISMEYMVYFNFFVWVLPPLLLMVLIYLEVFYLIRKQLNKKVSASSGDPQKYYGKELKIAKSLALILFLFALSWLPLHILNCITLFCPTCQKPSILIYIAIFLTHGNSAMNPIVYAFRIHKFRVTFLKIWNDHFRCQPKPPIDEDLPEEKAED

[15] = molecular target: T1, Adenosine receptor A1 (Homo sapiens); test: Displacement of [3H]DPCPX from human adenosine A1 receptor expressed in CHO cells at 100 uM; assay type: cell-based

Row | SMILES | Activity [1] [%] | Activity [2] [%] | Activity [3] [%] | Activity [4] [%] | Activity [5] [%] | Activity [6] [%] | Activity [7] [%] | Kd [8] [nM] | Bmax [9] [fmol] | Activity [10] | Kd [11] [nM] | Bmax [12] [fmol] | Activity [13] | Ki [14] [nM] | Activity [15] [%]
1 | CN1CCN(Cc2csc(N)c2C(=O)c2ccc(Cl)cc2)CC1 | 3 | 3 | 1 | 16 | 3 | 0 | 0 | 1.2 | 570 | 1.1 | 1.7 | 2990 | 0.9 |  | 
2 | N#Cc1ccc(N2CCN(Cc3csc(N)c3C(=O)c3ccc(Cl)cc3)CC2)cc1 | 12 | 8 | 54 | 72 | 0 | 0 | 20 | 1.1 | 2490 | 4.8 | 1.8 | 3260 | 1 |  | 
3 | Nc1scc(CN2CCN(c3ccccn3)CC2)c1C(=O)c1ccc(Cl)cc1 | 9 | 5 | 46 | 69 | 0 | 4 | 0 | 1.2 | 1810 | 3.5 | 1.7 | 3090 | 0.9 |  | 
4 | Nc1scc(CN2CCN(c3ccc4c(c3)OCO4)CC2)c1C(=O)c1ccc(Cl)cc1 | 15 | 13 | 23 | 34 | 0 | 0 | 0 | 1.1 | 725 | 1.4 | 1.9 | 3190 | 0.9 |  | 
5 | Cc1sc(N)c(C(=O)c2cccc(C(F)(F)F)c2)c1C | 8 | 3 | 31 | 57 | 0 | 0 | 21 |  | 673 | 1.3 |  | 3340 |  | 11000 | 42
6 | Nc1scc(CN2CCN(c3ccc(Cl)cc3)CC2)c1C(=O)c1ccc(Cl)cc1 | 10 | 48 | 65 | 78 | 0 | 3 | 6 | 1.1 | 3630 | 7 | 1.8 | 3650 | 1.1 |  | 
7 | Nc1scc(CN2CCN(c3ncccn3)CC2)c1C(=O)c1ccc(Cl)cc1 | 9 | 3 | 25 | 69 | 0 | 0 | 0 | 1.1 | 1450 | 2.8 | 1.7 | 3320 | 1 |  | 
8 | Nc1scc(CN2CCN(Cc3ccccc3)CC2)c1C(=O)c1ccc(Cl)cc1 | 3 | 4 | 30 | 78 | 0 | 0 | 0 | 1.1 | 3160 | 6.1 | 1.7 | 3420 | 1 |  | 
9 | Nc1scc(CN2CCN(C3CCCCC3)CC2)c1C(=O)c1ccc(Cl)cc1 | 5 | 3 | 13 | 52 | 0 | 0 | 5 | 1.1 | 622 | 1.2 | 1.9 | 3200 | 0.9 |  | 

Continued by falling Kd [8], values first:

Row | Activity [1] [%] | Activity [2] [%] | Activity [3] [%] | Activity [4] [%] | Activity [5] [%] | Activity [6] [%] | Activity [7] [%] | Kd [8] [nM] | Bmax [9] [fmol] | Activity [10] | Kd [11] [nM] | Bmax [12] [fmol] | Activity [13] | Ki [14] [nM] | Activity [15] [%] | SMILES
10 | 10 | 3 | 22 | 66 | 0 | 0 | 0 | 1 | 2020 | 3.9 | 1.7 | 3060 | 0.9 |  |  | Cc1ccc(N2CCN(Cc3csc(N)c3C(=O)c3ccc(Cl)cc3)CC2)cc1
11 | 3 | 19 | 63 | 77 | 0 | 0 | 17 | 1 | 3470 | 6.7 | 1.8 | 3560 | 1.1 |  |  | Nc1scc(CN2CCN(c3ccc(F)cc3)CC2)c1C(=O)c1ccc(Cl)cc1
12 | 10 | 53 | 84 | 87 | 0 | 0 | 15 | 1 | 3990 | 7.7 | 1.9 | 3680 | 1.1 |  |  | Nc1scc(CN2CCN(c3ccc(C(F)(F)F)cc3)CC2)c1C(=O)c1ccc(Cl)cc1
13 | 4 | 26 | 62 | 78 | 0 | 0 | 0 | 1 | 3370 | 6.5 | 1.9 | 3520 | 1 |  |  | Nc1scc(CN2CCN(c3ccccc3)CC2)c1C(=O)c1ccc(Cl)cc1
